Structures are written as SMILES.

What all share (assay type): in vitro ADME
For data set [1], the target named is T1, rUGT1A9 (Homo sapiens, UniProt O60656).
T1 construct: purchased Corning (Woburn, MA, USA)
T1 sequence (O60656 26-530): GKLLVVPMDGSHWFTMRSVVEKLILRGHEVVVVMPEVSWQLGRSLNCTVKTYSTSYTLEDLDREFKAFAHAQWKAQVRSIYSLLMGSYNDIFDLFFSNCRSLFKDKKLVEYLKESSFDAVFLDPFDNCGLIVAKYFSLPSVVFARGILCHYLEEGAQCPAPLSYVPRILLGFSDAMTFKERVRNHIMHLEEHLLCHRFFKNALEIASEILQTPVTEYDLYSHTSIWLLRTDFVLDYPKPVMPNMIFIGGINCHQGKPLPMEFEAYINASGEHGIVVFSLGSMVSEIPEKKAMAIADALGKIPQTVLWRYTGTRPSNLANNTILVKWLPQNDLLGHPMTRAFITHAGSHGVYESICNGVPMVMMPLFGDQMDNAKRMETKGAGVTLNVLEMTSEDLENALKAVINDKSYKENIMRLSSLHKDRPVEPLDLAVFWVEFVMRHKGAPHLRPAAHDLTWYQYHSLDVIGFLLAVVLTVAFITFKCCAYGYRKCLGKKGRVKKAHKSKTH
Briefly: Recombinant enzyme kinetics of GL-V9 glucuronidation, rUGT1A9. Conditions: formation of 5-O-glucuronide GL-V9; rUGT1A9, protein 0.06 mg/mL, 1 h at 37 °C; mean ± SD, n = 3.

Data set [2] relates to beagle dog liver microsomes (DLMs). Briefly: Enzyme kinetics of GL-V9 glucuronidation in beagle dog liver microsomes (DLMs). Conditions: formation of 5-O-glucuronide GL-V9, protein 0.1 mg/mL, mean ± SD, n = 3. How it is done: (§1) The composition of the incubation system (200 μL) contained liver microsomes of different species (0.1 mg protein/mL), 5 mM saccharolactone (D-saccharic acid 1,4-lactone monohydrate), 10 mM MgCl2, alamethicin (50 μg/mg protein), Tris-HCl buffer (50 mM, pH 7.4) and GL-V9 (1 μM). After 5 min of preincubation at 37 °C, UDPGA (5 mM) was added to initiate the phase II reaction. Control incubation samples were performed without UDPGA or without substrates (GL-V9). The reaction was terminated by addition of ice-cold methanol (three volumes) after incubation for 1 h at 37 °C. Samples were vortexed, centrifuged at 21,500× g for 10 min and then stored at 4 °C until HPLC-UV-TripleTOF analysis. To confirm that these metabolites are conjugates resulting from glucuronidation reaction, enzymatic hydrolysis of samples was processed. β-glucuronidase (100 KU, Sigma) was added and the hydrolysis was performed overnight at 37 °C. The control samples were carried out without β-glucuronidase under the same condition.
(§2) Enzyme kinetics experiments were carried out in triplicate among five different species, including monkey, beagle dog, rat, mouse, and human. The reaction system and operations are as same as described in Section 4.3. The solutions of GL-V9 were selected over a range of concentrations (0.05, 0.2, 0.5, 1, 2, 5, 10, 20 μM). […]
Background: Liver microsomes are a subcellular fraction often used to study metabolism.

Assay in data set [3]: as above
The conditions noted are these: beagle, dog, liver microsomes, pH 7.4, formation of 5-O-glucuronide GL-V9, protein 0.1 mg/mL, mean ± SD, n = 3. Here is the method: as §1, §2

For `COc1c(OCCCCN2CCCC2)cc(O)c2c(=O)cc(-c3ccccc3)oc12` [GL-V9], the results for the Vmax in data set [1] and in data set [2] were 148.1 ± 2.56 pmol/min/mg and 22.03 ± 0.42 pmol/min/mg, respectively. Besides, in data set [3], the Km at 1 h was determined as 12.5 ± 1.43 µM.

What is called Vmax is the rate approached at saturating substrate. Usually Km stands for the concentration of substrate that gives half-maximal velocity.

The values are drawn from article PMC6515479, “An Investigation on Glucuronidation Metabolite Identification, Isozyme Contribution, and Species Differences of GL-V9 In Vitro and In Vivo” (Molecules, 2019).
